Reference: PMC6921279 (Frontiers in Endocrinology, 2019)

Key:
[1] = system: MEK1/2-mediated phosphorylation of ERK1/2; set-up: method as in PMID 16484629, PMID 10098484, PMID 14670995, PMID 11117536, PMID 12970163; conditions: CRF1R and CRF2R signaling, various cell lines; cited from earlier work
Src = test: CRF-induced Src phosphorylation at Tyr416 in COS-7 cells expressing HA-CRF1R; type: cell-based; conditions: 10 μM PP2, 30 min pretreatment; 100 nM CRF, 5 min
Procedure: COS-7 cells (from the American Type Culture Collection) were cultured at 37°C in a humidified atmosphere of 95% air, 5% CO2, in DMEM supplemented with 10% FBS, 100 μg/ml streptomycin, and 100 units/ml penicillin (COS-7 growth medium). Transient transfections were performed using LipofectAMINE (Life Technologies: Gaithersburg, MD) as described previously ([27]). Cells were seeded at 8 × 10^5 cells/10-cm dish in COS-7 medium and cultured for 3 days before transfection. COS-7 cells were transfected in 5 ml/dish OptiMEM containing 10 μg/ml LipofectAMINE with empty vector, pcDNA3 encoding the HA-CRF1R or the HA-CRF1R-Δ386 mutant. […] After replacing the transfection medium with fresh growth medium, transfected COS-7 cells were cultured for 1 day. […]
(§1) The protocols for measuring total and phosphorylated ERK1/2, c-Src, PYK2, Akt, and EGFR have been previously published ([28], [29]). […] The labeled bands were quantified using the Quantity One 4.6.3 software program (Bio-Rad).
Figure 5 Role of Src tyrosine kinase in CRF-stimulated ERK1/2 phosphorylation. […] Total cell lysates were separated by SDS-PAGE and analyzed by immunoblotting with anti-p-Src Tyr^416 (A,B) or anti-p-ERK1/2 Thr^202/Tyr^204 (C–E), as described in Materials and Methods. Src, PYK2, and ERK1/2 phosphorylation were quantitated by densitometry, and mean values were plotted from three to five independent experiments. […]

[2] = system: CRF1R-mediated Akt phosphorylation; test: CRF-induced Akt phosphorylation at Ser473 in COS-7 cells expressing HA-CRF1R; type: cell-based, human; conditions: PP2 10 μM, 30 min pretreatment; 100 nM CRF, 5 min
Procedure: (§2) Plasmid pRK5 encoding the carboxyl terminus of βARK that contains its βγ-binding domain (ct-βARK) was kindly provided by Dr. W. Koch (Center for Translational Medicine, Temple University, Philadelphia, PA), which is a scavenger for G protein βγ subunits ([25]). […] Plasmid pUSEamp encoding dominant-negative Akt-K179M (dn-Akt) was from Upstate Biotechnology (Lake Placid, NY).
(§3) COS-7 cells (from the American Type Culture Collection) were cultured at 37°C in a humidified atmosphere of 95% air, 5% CO2, in DMEM supplemented with 10% FBS, 100 μg/ml streptomycin, and 100 units/ml penicillin (COS-7 growth medium). Transient transfections were performed using LipofectAMINE (Life Technologies: Gaithersburg, MD) as described previously ([27]). Cells were seeded at 8 × 10^5 cells/10-cm dish in COS-7 medium and cultured for 3 days before transfection. COS-7 cells were transfected in 5 ml/dish OptiMEM containing 10 μg/ml LipofectAMINE with empty vector, pcDNA3 encoding the HA-CRF1R or the HA-CRF1R-Δ386 mutant. […] After replacing the transfection medium with fresh growth medium, transfected COS-7 cells were cultured for 1 day. Subsequently, cells were re-seeded in 6-well plates and cultured for an additional day prior to the experiment.
The protocols for measuring total and phosphorylated ERK1/2, c-Src, PYK2, Akt, and EGFR have been previously published ([28], [29]). After cells were cultured to 60–70% confluence, they were serum-deprived for 24 h. On the day of the experiment, cells were treated with the indicated ligands and inhibitors. […] After treatment, cells were placed on ice, the media was aspirated, and the cells were washed twice with ice-cold PBS and lysed in 100 μl of Laemmli sample buffer 1X. The lysates were briefly sonicated, heated at 95°C for 5 min, and centrifuged for 5 min at 14,000 rpm. Resulting supernatants were loaded in separate lanes of a 10% SDS-PAGE gels and electrophoresed. Next, Western transfer on to PDVF membranes was completed. The Western blots were then probed with specific antibodies targeting phosphorylated and non-phosphorylated forms of ERK1/2, c-Src, PYK2, Akt, and EGFR for primary immunodetection. […] The labeled bands were quantified using the Quantity One 4.6.3 software program (Bio-Rad).
Figure 7 CRF mediates Akt activation. […] Total cell lysates were separated by SDS-PAGE and analyzed by immunoblotting with anti-p-Akt Ser^473, as described in Materials and Methods. Akt phosphorylation was quantitated by densitometry, and mean values were plotted from three to five independent experiments. […]

PYK2 = test: CRF-induced PYK2 phosphorylation at Tyr402 in COS-7 cells expressing HA-CRF1R; type: cell-based; conditions: PP2 (discussion)
Procedure: (§4) COS-7 cells (from the American Type Culture Collection) were cultured at 37°C in a humidified atmosphere of 95% air, 5% CO2, in DMEM supplemented with 10% FBS, 100 μg/ml streptomycin, and 100 units/ml penicillin (COS-7 growth medium). Transient transfections were performed using LipofectAMINE (Life Technologies: Gaithersburg, MD) as described previously ([27]). Cells were seeded at 8 × 10^5 cells/10-cm dish in COS-7 medium and cultured for 3 days before transfection. COS-7 cells were transfected in 5 ml/dish OptiMEM containing 10 μg/ml LipofectAMINE with empty vector, pcDNA3 encoding the HA-CRF1R or the HA-CRF1R-Δ386 mutant. […]
as §1
(§5) Figure 6 CRF mediates EGFR phosphorylation at Tyr^845 and activation of PYK2. […] Total cell lysates were separated by SDS-PAGE and analyzed by immunoblotting with anti-p-EGFR Tyr^845 (A,B) or anti-p-PYK2 Tyr^402 (E), as described in Materials and Methods. EGFR and ERK1/2 phosphorylation were quantitated by densitometry, and mean values were plotted from three to five independent experiments. […] Src and EGFR were quantitated by densitometry, and mean values were plotted from three independent experiments. […]

[3] = system: CRF1R-mediated ERK1/2 phosphorylation; test: Modulation of CRF-stimulated ERK1/2 phosphorylation in COS-7 cells expressing HA-CRF1R; type: cell-based; conditions: 100 nM CRF, 5 min
Procedure: as §2, §3
The protocols for measuring total and phosphorylated ERK1/2, c-Src, PYK2, Akt, and EGFR have been previously published ([28], [29]). After cells were cultured to 60–70% confluence, they were serum-deprived for 24 h. On the day of the experiment, cells were treated with the indicated ligands and inhibitors. […] After treatment, cells were placed on ice, the media was aspirated, and the cells were washed twice with ice-cold PBS and lysed in 100 μl of Laemmli sample buffer 1X. The lysates were briefly sonicated, heated at 95°C for 5 min, and centrifuged for 5 min at 14,000 rpm. Resulting supernatants were loaded in separate lanes of a 10% SDS-PAGE gels and electrophoresed. Next, Western transfer on to PDVF membranes was completed. The Western blots were then probed with specific antibodies targeting phosphorylated and non-phosphorylated forms of ERK1/2, c-Src, PYK2, Akt, and EGFR for primary immunodetection. After blots were probed with horseradish peroxidase-conjugated secondary antibody, protein bands were visualized with enhanced chemiluminescence ECL reagent (Amersham Pharmacia Biotech, Piscataway, NJ or Pierce Biotechnology, Rockford, IL) and scanned using the GS-800 Calibrated Imaging Densitometer (Bio-Rad). The labeled bands were quantified using the Quantity One 4.6.3 software program (Bio-Rad).
Total cell lysates were separated by SDS-PAGE and analyzed by immunoblotting with anti-p-ERK1/2 Thr^202/Tyr^204, as described in Materials and Methods. ERK1/2 phosphorylation was quantitated by densitometry, and mean values were plotted from five independent experiments.
Total cell lysates were separated by SDS-PAGE and analyzed by immunoblotting with anti-p-ERK1/2 Thr^202/Tyr^204 (A–D) or anti-p-EGFR Tyr^1068 (E), as described in Materials and Methods. ERK1/2 and EGFR phosphorylation were quantitated by densitometry, and mean values were plotted from three to five independent experiments.
Total cell lysates were separated by SDS-PAGE and analyzed by immunoblotting with anti-p-ERK1/2 Thr^202/Tyr^204, as described in Materials and Methods. ERK1/2 phosphorylation was quantitated by densitometry, and mean values were plotted from three to five independent experiments.

EGFR Tyr845 = test: CRF-induced EGFR phosphorylation at Tyr845 in COS-7 cells expressing HA-CRF1R; type: cell-based; conditions: 10 μM PP2, 30 min pretreatment; 100 nM CRF, 5 min
Procedure: as §4, §1, §5

β2-adrenergic receptor = system: β2-adrenergic receptor; set-up: method as in PMID 15489914, PMID 11278940; conditions: A431 cells; cited from earlier work
From the text: Moreover, there is evidence that Tyr phosphorylation of GPCRs plays a role in mediating GPCR-Src interactions ([43]). […] This residue lies within a canonical Src SH2 binding domain, and it is proposed that Src directly binds the Tyr-phosphorylated β2-AR.

rat cardiomyocytes = system: rat cardiomyocytes; set-up: method as in PMID 12970163; conditions: CRF2R activation by Ucn2 and Ucn3; cited from earlier work

## COc1cccc(-c2cc(=O)c3ccccc3o2)c1N [PD98059]
[1]
  effect on ERK1/2 activation: inhibiting ERK1/2 activation

## CC(C)(C)n1nc(-c2ccc(Cl)cc2)c2c(N)ncnc21 [PP2]
Src
  effect on CRF-induced Src phosphorylation: CRF-induced Src phosphorylation was prevented
[2]
  effect on CRF-induced Akt activation: completely inhibited
PYK2
  effect on CRF-stimulated activation of Src, PYK2, the EGFR, and ERK1/2: markedly reduced or abolished the CRF-stimulated activation of Src, PYK2, the EGFR, and ERK1/2
[3]; 10 μM PP2, 30 min pretreatment
  effect on CRF-stimulated ERK1/2 phosphorylation: abolished CRF-stimulated ERK1/2 phosphorylation
[3]; PP2 0–20 μM, 30 min pretreatment, read-out: IC50, inhibition of CRF-stimulated ERK1/2 phosphorylation
  IC50: 2000 nM
EGFR Tyr845
  effect on CRF-induced EGFR Tyr845 phosphorylation: blocked

## CC(C)NCC(O)c1ccc(O)c(O)c1 (stereo not drawn) [isoproterenol]
β2-adrenergic receptor
  phosphorylation of β2-AR: results in phosphorylation of the receptor on Tyr^305

## CCCC[C@@H](C)/C=C(C)/C=C(\C)C(=O)NC1=C[C@@](O)(/C=C/C=C/C=C/C(=O)NC2=C(O)CCC2=O)[C@@H]2O[C@@H]2C1=O [manumycin A]
Rat cardiomyocytes
  effect on ERK1/2 phosphorylation: abolish ERK1/2 phosphorylation
